For assay [1], the target named is T1, soluble guanylyl cyclase (sGC) (Homo sapiens, UniProt Q02153).
T1 sequence (Q02153 1-619): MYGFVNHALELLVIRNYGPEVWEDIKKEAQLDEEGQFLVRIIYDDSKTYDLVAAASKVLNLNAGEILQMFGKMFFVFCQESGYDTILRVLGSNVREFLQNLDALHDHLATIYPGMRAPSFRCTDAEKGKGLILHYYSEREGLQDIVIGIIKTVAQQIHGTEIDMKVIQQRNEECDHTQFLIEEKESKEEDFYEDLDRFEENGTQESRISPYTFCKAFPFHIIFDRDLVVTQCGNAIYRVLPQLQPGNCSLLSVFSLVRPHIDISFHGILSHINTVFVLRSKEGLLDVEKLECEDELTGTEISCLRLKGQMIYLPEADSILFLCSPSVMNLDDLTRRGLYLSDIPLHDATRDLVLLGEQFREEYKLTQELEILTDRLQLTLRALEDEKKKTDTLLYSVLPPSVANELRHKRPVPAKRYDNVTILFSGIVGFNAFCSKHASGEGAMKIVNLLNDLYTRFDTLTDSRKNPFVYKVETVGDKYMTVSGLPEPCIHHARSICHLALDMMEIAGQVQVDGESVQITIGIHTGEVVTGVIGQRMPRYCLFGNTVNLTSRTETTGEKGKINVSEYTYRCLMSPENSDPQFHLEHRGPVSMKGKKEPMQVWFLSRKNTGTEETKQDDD
T1 sequence (Q02108 1-690 partner): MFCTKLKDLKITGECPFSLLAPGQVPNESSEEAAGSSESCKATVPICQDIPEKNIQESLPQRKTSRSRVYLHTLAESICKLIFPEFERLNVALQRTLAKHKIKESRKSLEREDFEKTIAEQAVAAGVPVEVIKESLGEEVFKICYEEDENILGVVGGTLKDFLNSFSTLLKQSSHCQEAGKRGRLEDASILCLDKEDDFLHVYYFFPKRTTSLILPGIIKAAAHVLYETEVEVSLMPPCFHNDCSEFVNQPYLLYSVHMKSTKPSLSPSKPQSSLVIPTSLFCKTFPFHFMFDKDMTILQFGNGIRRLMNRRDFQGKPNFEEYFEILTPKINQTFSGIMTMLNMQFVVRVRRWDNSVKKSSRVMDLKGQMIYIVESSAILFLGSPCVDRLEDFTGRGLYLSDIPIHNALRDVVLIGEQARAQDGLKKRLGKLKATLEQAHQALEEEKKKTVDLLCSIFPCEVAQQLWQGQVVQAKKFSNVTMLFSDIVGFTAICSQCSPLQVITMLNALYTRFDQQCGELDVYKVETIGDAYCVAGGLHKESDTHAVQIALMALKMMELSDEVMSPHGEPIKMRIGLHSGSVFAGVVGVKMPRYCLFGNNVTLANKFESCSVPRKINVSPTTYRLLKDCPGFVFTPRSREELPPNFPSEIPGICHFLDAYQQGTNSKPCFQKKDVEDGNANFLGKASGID
In words: anaerobic. The assay is classed as binding.

A further assay deals with Ns H-NOX (Nostoc sp. PCC 7120 = FACHB-418, UniProt A0ACD6B960). Briefly: biochemical.

In paper PMC3254785 (2011) one finds Kd data, which are given here for 2 molecules.

Molecules are shown by their SMILES.

Chain of Ns H-NOX (A0ACD6B960 1-189): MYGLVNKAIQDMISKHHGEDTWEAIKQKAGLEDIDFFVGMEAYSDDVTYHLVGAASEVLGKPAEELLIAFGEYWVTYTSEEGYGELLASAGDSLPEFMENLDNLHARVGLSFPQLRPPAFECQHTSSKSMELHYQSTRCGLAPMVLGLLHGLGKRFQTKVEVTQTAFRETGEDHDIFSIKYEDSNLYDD

In turn, `[N]=O` [NO] displayed a dissociation constant (Kd) in assay [1] of 54 nM.
Turning to `O=O` [O2], binding at Ns H-NOX was put at a Kd of 13 mM.

The term Kd denotes the equilibrium constant for the complex coming apart.
